The pKd is −log10 of the Kd, conventionally taken in molar units.

Consider 1 substance from patent publication US7417049B2 (priority 2002, dated 2008).

pKd: −log10 of the molar value.

The assay deals with α7 nAChR Subtype (Rattus norvegicus, UniProt Q05941). The format is binding. Conditions: read-out: KD of radioligand.
Chain of α7 nAChR Subtype (Q05941 23-502 limits assumed): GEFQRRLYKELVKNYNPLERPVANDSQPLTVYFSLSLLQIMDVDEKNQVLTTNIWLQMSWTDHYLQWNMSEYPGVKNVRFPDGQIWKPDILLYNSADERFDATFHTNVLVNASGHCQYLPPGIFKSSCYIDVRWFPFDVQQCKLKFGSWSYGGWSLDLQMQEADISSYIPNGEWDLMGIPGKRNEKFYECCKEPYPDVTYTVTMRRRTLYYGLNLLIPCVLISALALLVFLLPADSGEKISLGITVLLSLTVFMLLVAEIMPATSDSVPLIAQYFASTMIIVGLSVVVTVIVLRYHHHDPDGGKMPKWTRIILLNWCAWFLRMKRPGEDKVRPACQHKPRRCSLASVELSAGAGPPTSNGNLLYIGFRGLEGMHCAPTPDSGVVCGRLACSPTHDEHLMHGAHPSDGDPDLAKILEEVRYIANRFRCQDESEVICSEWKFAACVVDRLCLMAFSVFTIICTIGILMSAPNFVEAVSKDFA

In the case of [^125I]α-Bungarotoxin [[^125I]-α-BTX], the pKd was 8.78.
